From publication PMC9701179, “New tricyclic systems as photosensitizers towards triple negative breast cancer cells” (Archives of Pharmacal Research, 2022) come the findings set out here.

In one data set the test system is MDA-MB-231 cells. The experiment in a line: MTT cytotoxicity/photocytotoxicity test on human TNBC MDA-MB-231 cells. It is filed as cell-based. As to conditions: for IC50: Homo sapiens. How it is done: The irradiation device used for the irradiation of cell cultures during the assays was a black box equipped with two Philips UVA lamps with an irradiance of 17 mW cm^−2 and a centered emission peak at 365 nm; UVA irradiance was measured using a Waldmann Variocontrol radiometer, equipped with a UVA sensor. The box was maintained at room temperature inside with a fan and the multiwell plates were placed onto a water-refrigerated metal block.
Human triple negative (TNBC) breast MDA-MB-231 carcinoma cells were obtained from American Type Culture Collection (ATCC, Rockville, MD, USA). Human embryonic kidney HEK293 cells were obtained from the European Collection of Cell Cultures (ECACC, Salisbury, UK). Cell lines were maintained in the logarithmic phase at 37 °C in a 5% CO2 atmosphere using the following culture media containing 10% foetal calf serum (Euroclone, Milan, Italy), antibiotics (50 units/mL penicillin and 50 μg/mL streptomycin) and 2 mM l-glutamine: (i) RPMI-1640 medium (Euroclone, Milan, Italy) for MDA-MB-231 4 cells; (ii) DMEM (Euroclone, Milan, Italy) for HEK293 cells.
Cells (5–8 × 10^3 cells/well, dependent upon the growth characteristics of the cell line) were seeded in 96-well microplates in growth medium (100 μL). After 24 h, the medium was removed and replaced with a fresh one containing the compound to be studied at the appropriate concentration. Triplicate cultures were established for each treatment. For photocytotoxicity studies, after 1 h of incubation the medium was replaced with PBS and cells were treated with 2.0 J cm^−2 of UVA light. After irradiation, PBS was replaced with complete proliferation media. For pre-irradiation studies, instead, compounds in PBS were irradiated with 2.0 J cm^−2 of UVA light and subsequently cells were treated with pre-irradiated solutions. Following 24 h, each well was treated with 10 μL of a 5 mg/mL MTT saline solution, and following 5 h of incubation, 100 μL of a sodium dodecyl sulfate (SDS) solution in HCl 0.01 M were added. After an overnight incubation, cell growth inhibition was detected by measuring the absorbance of each well at 570 nm using a Bio-Rad 680 microplate reader. Mean absorbance for each drug dose was expressed as a percentage of the control untreated well absorbance and plotted against drug concentration. IC50 values, the drug concentrations that reduce the mean absorbance at 570 nm to 50% of those in the untreated control wells, were calculated by the four-parameter logistic (4-PL) model. Evaluation was based on means from at least four independent experiments.
The new synthetized pyrrolo[1,2-h][1,7]naphthyridinones 7 and pyrido[2,3-c]pyrrolo[1,2-a]azepinones 8 were screened for their cytotoxicity (in the dark) and photocitotoxicity (upon UVA light irradiation at 2.0 J/cm^2) profile on human TNBC cells, MDA-MB-231. The cytotoxicity/photocytotoxicity parameters, expressed in terms of IC50 values obtained by MTT test after 24 h of drug-exposure, are listed in Table 2.

The mark [1] stands for this setting: MDA-MB-231, in the dark, 1 h pre-treatment, recovered for total 24 h, read-out: Dark IC50 (µM) ± S.D.
Where [2] appears, read: light or radiation study, MDA-MB-231, 1 h pre-treatment, UVA 2.0 J/cm^2, recovered for total 24 h, read-out: UVA (2.0 J/cm^2) IC50 (µM) ± S.D.

Structures are written as SMILES. Read-outs that look alike come from different tables or passages of the source. A value given as a limit tells only on which side of the number the result lay.

For `CC(C)OC(=O)c1ccc2n1CCc1cc(S(=O)(=O)c3ccccc3)c(=O)n(C)c1-2` [Compound 7f, Propan-2-yl 3-(benzenesulfonyl)-1-methyl-2-oxo-1,2,5,6-tetrahydropyrrolo[1,2-h][1,7]naphthyridine-8-carboxylate], the IC50 in the data set with MDA-MB-231 cells (setting [1]) and with MDA-MB-231 cells (setting [2]) was greater than 50 µM in each case.
In the case of `CC(C)OC(=O)C1(Br)C=CC2=C3NC(=O)C(S(=O)(=O)c4ccccc4)C=C3CCN21` (centres unmarked) [Compound 7k, Propan-2-yl 3-(benzenesulfonyl)-8-bromo-2-oxo-1,2,5,6-tetrahydropyrrolo[1,2-h][1,7]naphthyridine-8-carboxylate], the melting point was in the range of 174 to 175 °C.
Turning to `Cn1c2c(cc(S(=O)(=O)c3ccccc3)c1=O)CCn1cccc1-2` [Compound 7d, 1-Methyl-3-(benzenesulfonyl)-5,6-dihydropyrrolo[1,2-h][1,7]naphthyridin-2(1H)-one], the melting point was 268 to 269 °C. In addition, the IC50 in the data set with MDA-MB-231 cells (setting [1]) is greater than 50 µM. The IC50 with MDA-MB-231 cells (setting [2]) is greater than 50 µM.
As to `COc1nc2c(cc1S(=O)(=O)c1ccccc1)CCCn1c(C(=O)OC(C)C)ccc1-2` [Compound 8f, Propan-2-yl 3-(benzenesulfonyl)-2-methoxy-6,7-dihydro-5H-pyrido[2,3-c]pyrrolo[1,2-a]azepine-9-carboxylate], the IC50 is greater than 50 µM with MDA-MB-231 cells (setting [1]) and 23.7 ± 1.5 µM with MDA-MB-231 cells (setting [2]).
For the compound `O=c1[nH]c2c(cc1S(=O)(=O)c1ccccc1)CCn1cccc1-2` [Compound 7a, 3-(benzenesulfonyl)-5,6-dihydropyrrolo[1,2-h][1,7]naphthyridin-2(1H)-one], the melting point is 317 to 318 °C. Moreover, the IC50 with MDA-MB-231 cells (setting [1]) was greater than 50 µM. Moreover, the IC50 in the data set on MDA-MB-231 cells (setting [2]) is greater than 50 µM.
For the compound `CCOC(=O)c1ccc2n1CCc1cc(S(=O)(=O)c3ccccc3)c(=O)[nH]c1-2` [Compound 7b, Ethyl 3-(benzenesulfonyl)-2-oxo-1,2,5,6-tetrahydropyrrolo[1,2-h][1,7]naphthyridine-8-carboxylate], the IC50 is greater than 50 µM in the data set on MDA-MB-231 cells (setting [1]) and 21 ± 0.4 µM with MDA-MB-231 cells (setting [2]).
`CC(C)OC(=O)C1(Br)C=CC2=C3NC(=O)C(S(=O)(=O)c4ccccc4)C=C3CCCN21` (centres unmarked) [Compound 8h, Propan-2-yl 3-(benzenesulfonyl)-9-bromo-2-oxo-1,5,6,7-tetrahydro-2H-pyrido[2,3-c]pyrrolo[1,2-a]azepine-9-carboxylate] registered a melting point of 167 to 168 °C. The IC50 with MDA-MB-231 cells (setting [1]) is greater than 50 µM. Moreover, in the data set with MDA-MB-231 cells (setting [2]), the IC50 is greater than 50 µM. In addition, the “UVA (2.0 J/cm^2) IC50 (µM) ± S.D” value in the data set on MDA-MB-231 cells (MDA-MB-231, 1 h pre-treatment, UVA 2.0 J/cm^2, recovered for total 24 h) was “completely ineffective in inhibiting cancer cell proliferation upon irradiation”.
On to `COc1nc2c(cc1S(=O)(=O)c1ccccc1)CCn1c(C(=O)OC(C)C)ccc1-2` [Compound 7i, Propan-2-yl 3-(benzenesulfonyl)-2-methoxy-5,6-dihydropyrrolo[1,2-h][1,7]naphthyridine-8-carboxylate], for which the IC50 in the data set on MDA-MB-231 cells (setting [1]) is greater than 50 µM; in the data set with MDA-MB-231 cells (setting [2]), 7.9 ± 0.5 µM.
On the same counts, the results for `CCOC(=O)c1ccc2n1CCCc1cc(S(=O)(=O)c3ccccc3)c(=O)[nH]c1-2` [Compound 8a, Ethyl 3-(benzenesulfonyl)-2-oxo-1,5,6,7-tetrahydro-2H-pyrido[2,3-c]pyrrolo[1,2-a]azepine-9-carboxylate] are greater than 50 µM and greater than 50 µM.
Take `CCOC(=O)c1ccc2n1CCCc1cc(S(=O)(=O)c3ccccc3)c(=O)n(C)c1-2` [Compound 8c, Ethyl 3-(benzenesulfonyl)-1-methyl-2-oxo-1,5,6,7-tetrahydro-2H-pyrido[2,3-c]pyrrolo[1,2-a]azepine-9-carboxylate]: the IC50 was greater than 50 µM with MDA-MB-231 cells (setting [1]) and 24.9 ± 2.8 µM with MDA-MB-231 cells (setting [2]).
In turn, `CCOC(=O)C1(Br)C=CC2=C3NC(=O)C(S(=O)(=O)c4ccccc4)C=C3CCCN21` (centres unmarked) [Compound 8g, Ethyl 3-(benzenesulfonyl)-9-bromo-2-oxo-1,5,6,7-tetrahydro-2H-pyrido[2,3-c]pyrrolo[1,2-a]azepine-9-carboxylate] gave a melting point of 172 to 173 °C.
The compound `CCOC(=O)C1(Br)C=CC2=C3NC(=O)C(S(=O)(=O)c4ccccc4)C=C3CCN21` (centres unmarked) [Compound 7j, Ethyl 3-(benzenesulfonyl)-8-bromo-2-oxo-1,2,5,6-tetrahydropyrrolo[1,2-h][1,7]naphthyridine-8-carboxylate] came in with a melting point of 196 to 197 °C.
Consider `CC(C)OC(=O)c1ccc2n1CCCc1cc(S(=O)(=O)c3ccccc3)c(=O)[nH]c1-2` [Compound 8b, Propan-2-yl 3-(benzenesulfonyl)-2-oxo-1,5,6,7-tetrahydro-2H-pyrido[2,3-c]pyrrolo[1,2-a]azepine-9-carboxylate], for which the IC50 in the data set on MDA-MB-231 cells (setting [1]) and in the data set with MDA-MB-231 cells (setting [2]) was greater than 50 µM in each case.
`COc1nc2c(cc1S(=O)(=O)c1ccccc1)CCn1cccc1-2` [Compound 7g, 2-methoxy-3-(phenylsulfonyl)-5,6-dihydropyrrolo[1,2-h][1,7]naphthyridine]: the melting point was in the range of 210 to 211 °C. Besides, the IC50 in the data set on MDA-MB-231 cells (setting [1]) is greater than 50 µM. For the same compound, the IC50 in the data set with MDA-MB-231 cells (setting [2]) was greater than 50 µM.
On to `CC(C)OC(=O)c1ccc2n1CCc1cc(S(=O)(=O)c3ccccc3)c(=O)[nH]c1-2` [Compound 7c, Propan-2-yl 3-(benzenesulfonyl)-2-oxo-1,2,5,6-tetrahydropyrrolo[1,2-h][1,7]naphthyridine-8-carboxylate], for which the IC50 with MDA-MB-231 cells (setting [1]) and with MDA-MB-231 cells (setting [2]) was greater than 50 µM throughout.
